Experimental data: ChEMBL document CHEMBL5104122, “Synthesis and application of phosphorylated saccharides in researching carbohydrate-based drugs” (Bioorg Med Chem, 2022)

Target: Galectin-7 (Homo sapiens, UniProt P47929)
Assay: Binding affinity to human Gal-7 assessed as dissociation constant by fluorescence polarization assay

Galectin-7, sequence (P47929 whole entry): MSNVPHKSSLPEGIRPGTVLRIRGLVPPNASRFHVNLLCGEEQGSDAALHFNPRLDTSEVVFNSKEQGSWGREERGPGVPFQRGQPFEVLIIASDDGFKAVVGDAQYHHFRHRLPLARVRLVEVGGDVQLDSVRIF

Kd	Compound
240 µM	COP(=O)(O)O[C@@H]1[C@@H](NC(=O)c2ccc(C)cc2)[C@@H](O)[C@@H](CO)O[C@H]1SC
450 µM	CS[C@@H]1O[C@H](CO)[C@H](O)[C@H](NC(=O)c2ccc(C)cc2)[C@H]1OP(=O)(O)OCc1ccccc1
